In patent publication US10695319B2, “Glucose conjugates of triptolide, analogs and uses thereof” (The Johns Hopkins University, priority 2016, dated 2020):

What was measured:
[1] = Preliminary experiments on tolerable treatment dose; assay type: in vivo; settings: mice
Method: (§1) The in vivo antitumor activity of the glucose-triptolide conjugate G4 was determined using an established metastatic prostate cancer model (Reference 1). In this model, the luciferase-expressing prostate cancer line PC3/ML was injected into NOD/SCID/IL2rγ^null (NSG) mice through the tail vein. The metastasis of the injected prostate cancer cells into liver, kidney, lung and bone can be monitored in live animals by bioluminescent imaging (BLI). It was shown that this is a reliable model with reproducible liver metastasis and all animals succumb by Week 7 after injection of cells (or Week 4 after initiation of treatments). […] Three weeks after cell injection, each compound was given once daily by IP at those doses for a total of 4 weeks. The surviving animals were continuously monitored upon termination of compound administration.

[2] = tested on: luciferase-expressing prostate cancer line PC3/ML; assay: Metastatic prostate cancer model, bioluminescent imaging; assay type: in vivo, NOD/SCID/IL2rγ^null (NSG) mice; settings: triptolide 0.2 mg/kg, G4 1 mg/kg
Method: FIG. 3. Effects of triptolide and glucose-triptolide conjugate G4 in a metastatic mouse prostate cancer model. The injected prostate cancer cells expressed luciferase, which was detected by imaging of live animals.
as §1

## CC(C)[C@]12O[C@H]1[C@@H]1O[C@]13[C@]1(O[C@H]1C[C@H]1C4=C(CC[C@@]13C)C(=O)OC4)[C@@H]2O [triptolide]
[1]
  tolerable treatment dose: 0.2 mg/kg
[2]; after 4 weeks of once daily IP, till end of experiment
  tumor after termination of compound administration: tumors immediately returned
[2]; once daily IP for 4 weeks, BLI
  tumor cells at the end of Week 4 of treatment: undetectable tumor cells
